According to patent US20040224960A1, “Pharmaceutical compositions and methods for their use” (Agouron Pharmaceuticals, Inc., priority 2003, published 2004):

Biological target: T1, cytochrome P450 2D6 (Homo sapiens, UniProt P10635)
T1 construct: were incubated with human liver microsomes (0.25 mg/mL protein and 0.075 μM P450); from tissue; host or cells: human liver microsomes
Assay: inhibition of cytochrome P450 2D6 in human liver microsomes (dextromethorphan to dextrorphan)
Format: biochemical
Details: human liver microsomes 0.25 mg/mL protein, 8 μM dextromethorphan, 1 mM NADPH, 37° C., 20 min; average IC50 with number of tests in parentheses
Experimental: Following the 20 min incubation, the reaction was quenched by addition of 200 μL acetonitrile containing 0.1 μM buspirone as an internal standard. The samples were then vortex mixed and centrifuged to pellet the protein. The supernantant was transferred, dried under nitrogen flow and reconstituted in mobile phase. A 10 uL aliquot was injected onto a gradient reversed phase HPLC system with a Phenomenex Luna C18 (50×4.6 mm) column. Dextrorphan, formed by the metabolism of dextromethorphan by CYP 2D6, was monitored using tandem MS/MS in the APCl mode with the MRM transition of m/z 258.3>156.6. Remaining-CYP2D6 activity (%) was determined for the samples relative to a vehicle control. The data were analyzed by non-linear regression according to % R=% Rmax[formula](1−(C/(C+IC50))) using WinNonLin (version 4.0.1), where % R is the % remaining CYP 2D6 activity relative to the vehicle control, C is the concentration of the compound of interest, and IC50 is the inhibitory concentration of the compound of interest giving 50% inhibition of maximal % remaining activity. The data are reported as IC50s (μM). If more than one assay was performed for a particular compound, the average IC50 is reported with the number of tests in parentheses.

T1 sequence (P10635 whole entry): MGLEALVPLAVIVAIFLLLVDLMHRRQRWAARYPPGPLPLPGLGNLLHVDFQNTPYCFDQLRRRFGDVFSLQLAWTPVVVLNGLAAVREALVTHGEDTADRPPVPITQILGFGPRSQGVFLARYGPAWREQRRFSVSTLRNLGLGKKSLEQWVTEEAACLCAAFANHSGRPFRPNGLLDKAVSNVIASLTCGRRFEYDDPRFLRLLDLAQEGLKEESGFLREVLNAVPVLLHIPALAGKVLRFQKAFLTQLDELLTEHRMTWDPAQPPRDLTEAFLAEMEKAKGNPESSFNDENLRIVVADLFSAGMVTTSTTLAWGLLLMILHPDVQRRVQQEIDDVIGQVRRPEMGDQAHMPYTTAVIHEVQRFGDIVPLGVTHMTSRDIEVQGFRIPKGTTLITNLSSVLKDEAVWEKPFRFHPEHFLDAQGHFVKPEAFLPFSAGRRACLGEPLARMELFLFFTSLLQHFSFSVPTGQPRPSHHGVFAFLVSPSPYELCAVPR

| SMILES | IC50 |
| --- | --- |
| CC(C)(C#N)c1ccc(CCC2(C3CCCC3)CC(O)=C(Cc3cn4ccccc4n3)C(=O)O2)cc1F (stereo not shown) [Compound 21, 2-(4-{2-[2-cyclopentyl-4-hydroxy-5-(imidazo[1,2-a]pyridin-2-ylmethyl)-6-oxo-3,6-dihydro-2H-pyran-2-yl]ethyl}-2-fluorophenyl)-2-methylpropanenitrile] | 890 nM |
| CC(C)(O)c1ccc(CCC2(C3CCCC3)CC(O)=C(Cc3nc4ncc(Cl)cn4n3)C(=O)O2)cc1F (stereo not shown) [Compound 22, 3-[(6-chloro[1,2,4]triazolo[1,5-a]pyrimidin-2-yl)methyl]-6-cyclopentyl-6-{2-[3-fluoro-4-(1-hydroxy-1-methylethyl)phenyl]ethyl}-4-hydroxy-5,6-dihydro-2H-pyran-2-one] | 600 nM |
| Cc1cnc2nc(CC3=C(O)CC(CCc4cc(F)c(C5(C#N)CC5)c(F)c4)(C4CCCC4)OC3=O)nn2c1 (stereo not shown) [Compound 30, 1-[4-(2-{2-cyclopentyl-4-hydroxy-5-[(6-methyl[1,2,4]triazolo[1,5-a]pyrimidin-2-yl)methyl]-6-oxo-3,6-dihydro-2H-pyran-2-yl}ethyl)-2,6-difluorophenyl]cyclopropanecarbonitrile] | 190 nM |

Results, then the compound that gave them:

| IC50 | SMILES |
| --- | --- |
| < 74 nM | CC(C)(C#N)c1c(F)cc(CCC2(C3CCCC3)CC(O)=C(Cc3nc4ncccn4n3)C(=O)O2)cc1F (stereo not shown) [Compound 20, 2-(4-{2-[2-cyclopentyl-4-hydroxy-6-oxo-5-([1,2,4]triazolo[1,5-a]pyrimidin-2-ylmethyl)-3,6-dihydro-2H-pyran-2-yl]ethyl}-2,6-difluorophenyl)-2-methylpropanenitrile] |
| 130 nM | CCc1cnc2nc(CC3=C(O)CC(CCc4cc(F)c(C(C)(C)C#N)c(F)c4)(C4CCCC4)OC3=O)nn2c1 (stereo not shown) [Compound 28, 2-[4-(2-{2-cyclopentyl-5-[(6-ethyl[1,2,4]triazolo[1,5-a]pyrimidin-2-yl)methyl]-4-hydroxy-6-oxo-3,6-dihydro-2H-pyran-2-yl}ethyl)-2,6-difluorophenyl]-2-methylpropanenitrile] |
| 1400 nM | Cc1cnc2nc(CC3=C(O)CC(CCc4ccc(C5(C#N)CCC5)c(F)c4)(C4CCCC4)OC3=O)nn2c1 (stereo not shown) [Compound 29, 1-[4-(2-{2-cyclopentyl-4-hydroxy-5-[(6-methyl[1,2,4]triazolo[1,5-a]pyrimidin-2-yl)methyl]-6-oxo-3,6-dihydro-2H-pyran-2-yl}ethyl)-2-fluorophenyl]cyclobutanecarbonitrile] |
| < 74 nM | COc1cc(C(C)(C)C#N)c(F)cc1CCC1(C2CCCC2)CC(O)=C(Cc2nc3ncc(C)cn3n2)C(=O)O1 (stereo not shown) [Compound 33, 2-[4-(2-{2-cyclopentyl-4-hydroxy-5-[(6-methyl[1,2,4]triazolo[1,5-a]pyrimidin-2-yl)methyl]-6-oxo-3,6-dihydro-2H-pyran-2-yl}ethyl)-2-fluoro-5-methoxyphenyl]-2-methylpropanenitrile] |
